From patent US10149839B2, “Chemical compounds” (AstraZeneca AB, priority 2016, dated 2018) come the findings set out here.

A short description of data set [1]: Human plasma protein binding (equilibrium dialysis). Format: in vitro ADME. The following applies: dialysis 18 hours.
Another data set can be described thus: physchem. Particulars: 1-octanol/aqueous buffer, pH 7.4.
Data set [2] can be described thus: Human hepatocyte assay (metabolic stability). Format: in vitro ADME. Particulars: cryopreserved pooled human hepatocytes (LiverPool 10 Donor), in vitro intrinsic clearance.
Data set [3] concerns the target T1, Estrogen Receptor (ERα) in MCF-7 cells (Homo sapiens (Human), UniProt P03372). The data set is described as follows: MCF-7 ER down-regulation assay (immuno-fluorescence). Format: cell-based. Particulars: for IC50: 18-22 hours incubation.
Data set [4] is described as follows: Thermodynamic solubility (shake flask). The following applies: aqueous phosphate buffer pH 7.4, 24 hours. Format: physicochemical.
Data set [5] concerns the target estrogen receptor (ERα) in CAMA-1 cells (Homo sapiens (Human), UniProt P03372). Briefly: Western blotting assay, CAMA-1 cells. The following applies: compound 100 nM, 48 h, normalised to 100 nM fulvestrant (100%). Format: cell-based.
Data set [6] is described as follows: Human Caco-2 bidirectional permeability A to B and B to A. Format: in vitro ADME.
A short description of data set [7]: Human Caco-2 passive permeability A to B Papp. Particulars: apical pH 6.5, basolateral pH 7.4, with efflux transporter inhibitor cocktail. Format: in vitro ADME.
Data set [8] concerns the target T1, Estrogen Receptor (ERα) in MCF-7 cells. The data set is described as follows: Western blotting assay, MCF-7 cells. Format: cell-based. Particulars: compound 100 nM, 48 h, normalised to 100 nM fulvestrant (100%).
The nature of data set [9]: Log D (shake flask, 1-octanol/aqueous buffer). The following applies: pH 7.4, 1-octanol/aqueous buffer.
[10] abbreviates: aqueous phosphate buffer, 25 °C, pH 7.4, aqueous buffer, thermodynamic from solid.

Molecules are shown by their SMILES. Values after ≈ are worked out from the molar mass of the structure shown.

T1 sequence (P03372 whole entry): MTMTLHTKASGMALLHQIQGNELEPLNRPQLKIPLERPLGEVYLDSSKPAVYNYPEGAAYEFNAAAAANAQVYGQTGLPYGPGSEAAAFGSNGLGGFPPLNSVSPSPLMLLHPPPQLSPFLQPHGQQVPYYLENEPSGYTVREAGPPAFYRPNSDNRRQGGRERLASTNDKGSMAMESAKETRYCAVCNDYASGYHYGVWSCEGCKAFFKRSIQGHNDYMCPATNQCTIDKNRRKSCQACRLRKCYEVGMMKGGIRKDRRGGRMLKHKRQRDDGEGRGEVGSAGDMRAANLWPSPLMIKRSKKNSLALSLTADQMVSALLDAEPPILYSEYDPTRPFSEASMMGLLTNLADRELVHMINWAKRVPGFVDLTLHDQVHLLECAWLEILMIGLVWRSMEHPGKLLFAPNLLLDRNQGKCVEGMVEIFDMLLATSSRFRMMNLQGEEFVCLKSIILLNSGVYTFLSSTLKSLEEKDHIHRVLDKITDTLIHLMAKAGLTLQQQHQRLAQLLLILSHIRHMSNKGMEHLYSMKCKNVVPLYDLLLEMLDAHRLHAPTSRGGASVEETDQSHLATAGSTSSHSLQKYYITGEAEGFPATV
estrogen receptor (ERα) in CAMA-1 cells, sequence (P03372 whole entry): as above

Take `CC(C)CN1[C@H](c2ccc(OCCNCCCF)cc2)c2[nH]c3ccccc3c2C[C@H]1C` [Example 2, 3-fluoro-N-(2-(4-((1R,3R)-2-isobutyl-3-methyl-2,3,4,9-tetrahydro-1H-pyrido[3,4-b]indol-1-yl)phenoxy)ethyl)propan-1-amine]: in data set [1], the “Human plasma protein binding (% free)” value was 1.5 % free. In “physchem”, the logD is 3.6. Moreover, the intrinsic clearance (hepatocyte CLint) at 1 µM in data set [2] was below 1 µL/min/1e6 cells. This compound also came in with an IC50 in data set [3] of 430 pM. The solubility at 24 h in [4] (setting [10]) came to 301 µM (≈ 132 µg/mL).

`COc1cc(OCCNCCCF)ncc1[C@@H]1c2[nH]c3ccccc3c2C[C@@H](C)N1CC(F)F` [Example 40, N-(2-((5-((1R,3R)-2-(2,2-difluoroethyl)-3-methyl-2,3,4,9-tetrahydro-1H-pyrido[3,4-b]indol-1-yl)-4-methoxypyridin-2-yl)oxy)ethyl)-3-fluoropropan-1-amine]: in data set [1], the “Human plasma protein binding (% free)” value was determined as 5.8 % free. Moreover, the logD in the data set “physchem” came to 2.7. Also, the hepatocyte CLint at 1 µM in [2] came out at 5 µL/min/1e6 cells. This compound registered an IC50 in data set [3] of 170 pM. Also, the “CAMA1 Western % ER deg vs Fv” value in data set [5] amounted to 85%. Besides, the Papp at 2 h in data set [6] (Caco-2, 2 hours, pH 7.4) came out at 3.2 ×10⁻⁶ cm/s; in [7] it was 14 ×10⁻⁶ cm/s. In addition, the efflux ratio at 2 h in [6] (Papp(B-A)/Papp(A-B), Caco-2, pH 7.4) worked out at 1.8. The solubility at 24 h in data set [4] (setting [10]) amounted to 854 µM (≈ 407 µg/mL). Moreover, the “MCF7 Western % ER deg vs Fv” value in data set [8] was determined as 90%.

As for `C[C@@H]1Cc2c([nH]c3ccccc23)[C@@H](c2ccc(OCCNCCCF)cn2)N1CC(C)(C)F` [Example 30, 3-fluoro-N-(2-((6-((1S,3R)-2-(2-fluoro-2-methylpropyl)-3-methyl-2,3,4,9-tetrahydro-1H-pyrido[3,4-b]indol-1-yl)pyridin-3-yl)oxy)ethyl)propan-1-amine], in data set [1], the “Human plasma protein binding (% free)” value amounted to 2.0 % free. The compound further had a logD in the data set “physchem” of 3.4. The compound also had a hepatocyte CLint at 1 µM in data set [2] of 5 µL/min/1e6 cells. The same compound yielded an IC50 in data set [3] of 1200 pM. The solubility at 24 h in data set [4] (setting [10]) was determined as 135 µM (≈ 61.6 µg/mL).

As to `CC(C)CN1[C@H](c2ccc(OCCNCCC(F)F)cc2)c2[nH]c3ccccc3c2C[C@H]1C` [Example 1, 3,3-difluoro-N-(2-(4-((1R,3R)-2-isobutyl-3-methyl-2,3,4,9-tetrahydro-1H-pyrido[3,4-b]indol-1-yl)phenoxy)ethyl)propan-1-amine], the “Human plasma protein binding (% free)” value in [1] stood at 1.4 % free. In the data set “physchem”, this compound had a logD of 4.6. This compound registered a hepatocyte CLint at 1 µM in data set [2] below 1 µL/min/1e6 cells. The IC50 in data set [3] is 940 pM. The solubility at 24 h in data set [4] (setting [10]) is 34 µM (≈ 15.5 µg/mL).

As to `C[C@@H]1Cc2c([nH]c3ccccc23)[C@@H](c2c(F)cc(OCCNCCCF)cc2F)N1CC(C)(F)CO` (single isomer, unassigned) [Example 18], in data set [1], the “Human plasma protein binding (% free)” value was 2.4 % free. The IC50 in [3] came out at 650 pM. Also, the “% downregulation” value in data set [3] (shown in brackets where not >90%) is “(85%)”. In addition, the “LogD pH 7.4” value in [9] is given as 2.7. Also, the solubility at 24 h in [4] (25° C.) was 639 µM (≈ 324 µg/mL).
